Laboratory results as given in patent US7732637B2, “Acylamide compounds having secretagogue or inducer activity of adiponectin” (Ajinomoto Co., Inc., priority 2005, dated 2010).

The compounds below were run on 3T3-L1 cells (assay: Adiponectin output in culture supernatant of differentiated 3T3-L1 cells (LANCE immunoassay)). Conditions: adiponectin concentration in culture supernatant, test compound 7 μg/mL, 72 hours; control without compound 24 ng/mL.
Type: cell-based, mouse
Protocol: 3T3-L1 cells were suspended in Dulbecco's Modified Eagle Medium (GIBCO, 12430-054) containing 10% fetal bovine serum to become 1.5×10^5 cells/mL and seeded. After the incubation in the CO2 incubator at 37° C. for 72 hours, the medium was removed by suction. Then, the medium was exchanged for Dulbecco's Modified Eagle Medium containing 10 μg/mL of insulin, 1 μM of dexamethasone, 0.5 mM of IBMX (3-isobutyl-1-methylxanthine) and 10% fetal bovine serum, and further incubated in the CO2 incubator at 37° C. for 48 hours. The test compound was added to the medium, and then the incubation was continued for 72 hours.
Eu (Europium) chelate labeling of anti-mouse adiponectin antibody (AF1119, by R&D Systems) was conducted by using 100 μg of LANCE Eu-W1024-ITC chelate (AD0013 by Perkin Elmer), which is a Eu chelate labeling reagent, to 200 μg of the antibody in accordance with the method described in the manual of the manufacturer. Biotin labeling of anti-mouse adiponectin antibody (AF1119, by R&D Systems) was conducted by using 26.8 μg of NHS-Biotin (1418165, Biotin Labeling Kit, by Boehringer Mannheim), which is a biotin labeling reagent, to 100 μg of the antibody in accordance with the method described in the manual.
The amount of adiponectin in the cell culture supernatant was measured as follows. The culture supernatant was diluted fivefold with TBS (Tris-buffered saline; 20 mM Tris-HCl pH 7.4, 0.15M NaCl) containing 0.1% bovine serum albumin (BSA), and 10 μL thereof was mixed with 300 ng/mL of the Eu chelate labeled antibody, 300 ng/mL of the biotin labeled antibody, 2.5 μg/mL of Streptavidin-APC (AD0201, by Perkin Elmer) and 10 μL of a TBS solution containing 0.1% BSA on the 384-well plate. After preserving the mixture at room temperature for 2 days, LANCE count was measured by using ARVO-SX multilabel counter (by Perkin Elmer) in accordance with the protocol of the LANCE method. At the same time, the mouse adiponectin preparation (8060-K, by LINCO) was also measured, and the concentration of adiponectin in the culture supernatant was calculated from the calibration curve of the preparation.
Adiponectin outputs were measured by the same method as that of Examples 1 to 31.
With `CCCCCCCCCCCC(=O)NC(C)(CC)C(=O)O` (racemic) [Example 16] the Adiponectin output was 78 ng/mL. Work on `CCCCCCCCCCCC(=O)NC(C)(C(=O)O)C(C)C` (racemic) [Example 18] yielded an Adiponectin output of 87 ng/mL. With `CCCCCCCCCCCC(=O)NC(C(N)=O)C(C)C` (racemic) [Example 21] the Adiponectin output was 70 ng/mL. In the case of `CCCCCCCCCCCCNC(=O)C(NC(=O)CCCCCCCCCCC)C(C)C` (racemic) [Example 22], the Adiponectin output is reported as 64 ng/mL. Work on `CCCCCCCCCCCC(=O)N[C@H](C(=O)NC1CCCCC1)C(C)C` (racemic) [Example 23, N-lauroyl-L-valine cyclohexylamide] yielded an Adiponectin output of 65 ng/mL. Work on `C=CCCCCCCCCC(=O)N[C@@H](Cc1ccccc1)C(=O)O` [Example 8] yielded an Adiponectin output of 54 ng/mL. With `CCCCCCCCCCC(=O)N[C@@H](Cc1ccccc1)C(=O)O` [Example 12] the Adiponectin output was 58 ng/mL. With `CCCCCCCCCCCC(=O)NC(C)(C)C(=O)O` [Example 17] the Adiponectin output was 81 ng/mL. `CCCCCCCCCCCC(=O)N[C@@H](CCSC)C(=O)O` [Example 19] was tested, and the Adiponectin output was 71 ng/mL. `CCCCCCCCCCCC(=O)N(CC)[C@H](C(=O)O)C(C)C` [Example 24] showed an Adiponectin output of 66 ng/mL.

Same assay, conditions: adiponectin concentration in culture supernatant, test compound 12.5 μM, 72 hours; control without compound 24 ng/mL
In the case of `CCCCCCCCC(=O)N[C@H](C(=O)O)[C@@H](C)CC` [Example 2], the Adiponectin output is reported as 58 ng/mL. Compound `CCCCCCCCC(=O)N[C@@H](CC(C)C)C(=O)O` [Example 3] has an Adiponectin output of 42 ng/mL. With `CCCCCCCCC(=O)N[C@H](C(=O)O)C(C)C` [Example 4] the Adiponectin output was 64 ng/mL. `CCCCCCCCCC(=O)N[C@H](C(=O)O)[C@@H](C)CC` [Example 5] showed an Adiponectin output of 74 ng/mL. For `CCCCCCCCCC(=O)N[C@@H](CC(C)C)C(=O)O` [Example 6], the Adiponectin output was 54 ng/mL. Work on `C=CCCCCCCCCC(=O)N[C@@H](CC(C)C)C(=O)O` [Example 7] yielded an Adiponectin output of 61 ng/mL. `CCCCCCCCCC(=O)N[C@H](C(=O)O)C(C)C` [Example 9] was tested, and the Adiponectin output was 81 ng/mL. With `C=CCCCCCCCCC(=O)N[C@H](C(=O)O)C(C)C` [Example 10] the Adiponectin output was 59 ng/mL. `CCCCCCCCCCC(=O)N[C@@H](CC(C)C)C(=O)O` [Example 11] showed an Adiponectin output of 45 ng/mL. Compound `CCCCCCCCCCCC(=O)N[C@H](C(=O)O)[C@@H](C)CC` [Example 14] has an Adiponectin output of 84 ng/mL. For `CCCCCCCCCCCC(=O)N[C@@H](CC(C)C)C(=O)O` [Example 15], the Adiponectin output was 67 ng/mL. In the case of `CCCCCCCCCCCC(=O)N[C@H](C(=O)O)C(C)C` [Example 20, N-lauroyl-L-valine], the Adiponectin output is reported as 92 ng/mL. `CCCCCCCCCCCCCC(=O)N[C@H](C(=O)O)[C@@H](C)CC` [Example 25] gave an Adiponectin output of 93 ng/mL. Work on `CCCCCCCCCCCCCC(=O)N[C@@H](CC(C)C)C(=O)O` [Example 26] yielded an Adiponectin output of 56 ng/mL. With `CCCCCCCCCCCCCCCC(=O)N[C@@H](CC(C)C)C(=O)O` [Example 27] the Adiponectin output was 57 ng/mL. `CCCCCCCCCCCCCCCC(=O)N[C@H](C(=O)O)C(C)C` [Example 28] was tested, and the Adiponectin output was 31 ng/mL. For `CCCCCCCCCCCCCCCCCC(=O)N[C@@H](CC(C)C)C(=O)O` [Example 29], the Adiponectin output was 43 ng/mL. In the case of `CCCCCCCCCCCCCCCCCC(=O)N[C@H](C(=O)O)C(C)C` [Example 30], the Adiponectin output is reported as 43 ng/mL. `CCCCCCCCCCCCCCCCCCCCCC(=O)N[C@H](C(=O)O)C(C)C` [Example 31] was tested, and the Adiponectin output was 42 ng/mL.

Same assay, conditions: adiponectin output as ratio to that of Example 20 in Table 1; same method as Examples 1 to 31
With `CCCCCCCCCCCC(=O)NC(C(=O)O)C(C(F)(F)F)C(F)(F)F` (racemic) [Example 34] the “Adiponectin Ratio to Exam. 20 of Table 1” value was 25%. With `CCCCCCCCCCCC(=O)NC(Cc1ccccc1C)C(=O)O` (racemic) [Example 38] the “Adiponectin Ratio to Exam. 20 of Table 1” value was 31%. For `CCCCCCCCCCCC(=O)NC(C)(Cc1ccccc1)C(=O)O` (racemic) [Example 41], the “Adiponectin Ratio to Exam. 20 of Table 1” value was 22%. For `CCCCCCCCCC(=O)N[C@H](C(=O)O)C(C)(C)C` [Example 32], the “Adiponectin Ratio to Exam. 20 of Table 1” value was 56%. In the case of `CCCCCCCCCCCC(=O)N[C@H](C(=O)O)C(C)(C)C` [Example 33], the “Adiponectin Ratio to Exam. 20 of Table 1” value is reported as 103%. For `CCCCCCCCCCCC(=O)NC(C(=O)O)C(C)CC` (centres unmarked) [Example 35], the “Adiponectin Ratio to Exam. 20 of Table 1” value was 83%. `CCCCCCCCCCCC(=O)N[C@H](C(=O)O)c1ccccc1` [Example 36] was tested, and the “Adiponectin Ratio to Exam. 20 of Table 1” value was 33%. With `CCCCCCCCCCCC(=O)N[C@@H](Cc1ccc(OC)cc1)C(=O)O` [Example 37] the “Adiponectin Ratio to Exam. 20 of Table 1” value was 46%. For `CCCCCCCCCCCC(=O)N[C@H](C(=O)O)C1CCCCC1` [Example 39], the “Adiponectin Ratio to Exam. 20 of Table 1” value was 41%. In the case of `CCCCCCCCCCCC(=O)N[C@H](C(=O)O)C(c1ccccc1)c1ccccc1` [Example 40], the “Adiponectin Ratio to Exam. 20 of Table 1” value is reported as 14%. With `CCCCCCCCCCCC(=O)N[C@@H](Cc1ccc(Cl)cc1)C(=O)O` [Example 42] the “Adiponectin Ratio to Exam. 20 of Table 1” value was 44%. With `CCCCCCCCCCCC(=O)N[C@@H](Cc1csc2ccccc12)C(=O)O` [Example 43] the “Adiponectin Ratio to Exam. 20 of Table 1” value was 20%.

These compounds were tested on uncoupling protein 2 (UCP2) gene (assay: UCP2 mRNA expression level in liver of ob/ob mice). Conditions: 500 mg/kg orally once a day; autopsy 38th day; divided by GAPDH mRNA; vs control groups; FIG. 4.
Type: in vivo
Protocol: (§1) Male ob/ob mice of 5 weeks old (purchased from Charles River Laboratories Japan, Inc.) were preliminarily fed for one week by an experimental diet containing 25% by weight ratio of fats. Then, they were divided into groups so that their body weights and blood glucose were the same between the groups. After the division, N-lauroyl-L-valine (500 mg/kg) was orally administered once a day, and a control group was set, to which vehicle was administered. […] The non-fasting blood glucose was measured on the 6th, 14th and 26th day after starting the administration. The blood glucose was measured by collecting 6 μL of the blood from the caudal vein and using a Fuji DriChem system (produced by FUJIFILM Medical Co., Ltd.). […] Further, on the 27th day after starting the administration, the blood was collected by retroorbital bleeding, and the insulin and triglyceride concentrations in plasma were measured. […] SYBER GREEN Master Mix (ABI) and a primer for amplifying uncoupling protein 2 (UCP2) gene, acyl-CoA oxidase (ACO) gene or glyceraldehyde-3-phosphate dehydrogenase (GAPDH) gene were added to cDNA corresponding to 7.5 ng of total RNA, and the gene expression level was measured with ABI 7700 detector. […]
For `CCCCCCCCCCCC(=O)N[C@H](C(=O)O)C(C)C` [Example 20, N-lauroyl-L-valine], the “UCP2 mRNA expression level in the liver” value was “significantly increased”.

Each compound was assayed on ob/ob mice (assay: Oral administration to ob/ob mice on 25% fat diet: blood glucose, glycated hemoglobin, plasma insulin and triglyceride). Conditions: 500 mg/kg orally once a day; 6th, 14th and 26th day vs before starting the administration; FIG. 1.
Type: in vivo
Protocol: Male ob/ob mice of 5 weeks old (purchased from Charles River Laboratories Japan, Inc.) were preliminarily fed for one week by an experimental diet containing 25% by weight ratio of fats. Then, they were divided into groups so that their body weights and blood glucose were the same between the groups. After the division, N-lauroyl-L-valine (500 mg/kg) was orally administered once a day, and a control group was set, to which vehicle was administered. Taking into consideration the possibility that the effect of N-lauroyl-L-valine depends on the diet intake, pair-feeding group was also set as a control group in addition to the vehicle administered group, to which vehicle was daily administered in an average diet intake per a day of the N-lauroyl-L-valine administered group and, therefore, the diet intake thereof is quite the same as that of the N-lauroyl-L-valine administered group during the test period. The non-fasting blood glucose was measured on the 6th, 14th and 26th day after starting the administration. The blood glucose was measured by collecting 6 μL of the blood from the caudal vein and using a Fuji DriChem system (produced by FUJIFILM Medical Co., Ltd.). On the 26th day after starting the administration, the blood was collected by retroorbital bleeding, and 5 μL of its blood was used to conduct the measurement of glycated hemoglobin with the analyzer (HLC-723 GHbV, by Tosoh Technosystem). Further, on the 27th day after starting the administration, the blood was collected by retroorbital bleeding, and the insulin and triglyceride concentrations in plasma were measured. The measurement of the insulin concentration in plasma was conducted by using an insulin measurement kit (by Morinaga Institute of Biological Science, Inc.). The measurement of the triglyceride concentration in plasma was conducted by using a Fuji DriChem system. On the 38th day after staring the administration, autopsy was conducted to collect the liver of the mouse. Then, total RNA was extracted from the frozen liver by using ISOGEN (by Nippon Gene Co., Ltd.), and 0.5 μg of total RNA, oligo (dT) (by Invitrogen) and SuperScript III reverse transcriptase (by Invitrogen) were used to prepare cDNA. SYBER GREEN Master Mix (ABI) and a primer for amplifying uncoupling protein 2 (UCP2) gene, acyl-CoA oxidase (ACO) gene or glyceraldehyde-3-phosphate dehydrogenase (GAPDH) gene were added to cDNA corresponding to 7.5 ng of total RNA, and the gene expression level was measured with ABI 7700 detector. The expression levels of UCP2 and ACO genes were amended by being divided by the expression level of GAPDH mRNA. Two kinds of primers for amplifying UCP2 gene were used wherein the base sequences were ggcctctggaaagggactt and […] from 5′. […]
In the case of `CCCCCCCCCCCC(=O)N[C@H](C(=O)O)C(C)C` [Example 20, N-lauroyl-L-valine], the non-fasting blood glucose is reported as “decreased”.

Same assay, conditions: 500 mg/kg orally once a day; 26th day; vs vehicle group and pair-feeding group; FIG. 2
In the case of `CCCCCCCCCCCC(=O)N[C@H](C(=O)O)C(C)C` [Example 20, N-lauroyl-L-valine], the glycated hemoglobin level is reported as “significantly lower”.

Same assay, conditions: 500 mg/kg orally once a day; 27th day vs before; increased in control groups; FIG. 3
`CCCCCCCCCCCC(=O)N[C@H](C(=O)O)C(C)C` [Example 20, N-lauroyl-L-valine] was tested, and the “fasting insulin concentration in plasma” value was “such increase was not seen”.

Same assay, conditions: 500 mg/kg orally once a day; 27th day; vs control groups; FIG. 6
`CCCCCCCCCCCC(=O)N[C@H](C(=O)O)C(C)C` [Example 20, N-lauroyl-L-valine] was tested, and the “triglyceride concentration in plasma” value was “tended to be lower”.

What follows are compounds tested on acyl-CoA oxidase (ACO) gene (assay: ACO mRNA expression level in liver of ob/ob mice). Conditions: 500 mg/kg orally once a day; autopsy 38th day; divided by GAPDH mRNA; vs control groups; FIG. 5.
Type: in vivo
Protocol: as §1
For `CCCCCCCCCCCC(=O)N[C@H](C(=O)O)C(C)C` [Example 20, N-lauroyl-L-valine], the “ACO mRNA expression level in the liver” value was “significantly increased”.
